A word on the inhibition: it is the change of the read-out against control, counted positive when it falls.

Data on 29 molecules can be found in patent US8916599B2, “1H-benz imidazole-5-carboxamides as anti-inflammatory agents” (Orexo AB, priority 2008, dated 2014).

The first test has as its target T1, recombinant human mPGES-1 (Homo sapiens, UniProt O14684).
T1 construct: made in house; host or cells: Rosetta E. coli (microsomal/membrane fraction)
T1 sequence (O14684 1-152): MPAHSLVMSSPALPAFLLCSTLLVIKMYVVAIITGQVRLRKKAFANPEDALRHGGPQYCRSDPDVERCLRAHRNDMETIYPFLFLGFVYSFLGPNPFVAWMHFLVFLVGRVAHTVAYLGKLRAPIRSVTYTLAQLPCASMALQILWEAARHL
The test is described as follows: mPGES-1 inhibition test (microsomes, PGH2 substrate, HTRF detection of PGE2). The format is biochemical. The note with it: inhibition of mPGES-1 at 1 μM (marked in cell). As for the experimental part: Microsomes from Rosetta E. coli bacteria expressing recombinant human mPGES-1 is dissolved in 0.1 M KPi pH 7.4 buffer containing 2.5 mM GSH. 50 μl of the enzyme is subsequently dispensed in a 384-well plate. 0.5 μl of the inhibitor dissolved in DMSO at is thereafter added to each well and incubated for 25 minutes at room temperature. Subsequently, 2 μl of PGH2 dissolved in an appropriate solvent is added to each well and after one minute the acidified stop solution containing FeCl2 is added. 4 μl of the total volume is transferred to a separate plate and diluted 750-fold in two separate steps before HTRF detection of PGE2.
The HTRf detection is performed by the use of a commercially available kit from CisBio essentially according to the manufacturer's protocol. Briefly, 10 μl of the diluted sample is transferred to a white 384-well plate. 5 μl of d2 and 5 μl Eu3+-Cryptate labeled anti-PGE2 is added to each well containing samples by the use of a Multidrop. The plate is covered with a plastic self-adhesive film, centrifuged at 1200 rpm for 1 minute and subsequently stored at +4° C. over night.
After over night incubation the fluorescence is measured by the use of an appropriate microplate reader. The fluorescence of europium cryptate, and d2 are measured using the following excitation and emission wavelength, europium cryptate: λmax^ex=307 nm, λmax^em=620 nm and d2: λmax^ex=620 nm, λmax^em=665 nm), respectively. The extent of the specific FRET is measured as a ratio of the emission intensity at 665 nm vs. that at 620 nm. A standard curve using synthetic PGE2 is used to quantify the amount of PGE2 in unknown samples.
(In general: Time-resolved FRET reads energy transfer from a long-lived donor to a nearby acceptor.)
Consider `COc1cc2c(cc1C(=O)NC1CCC(C)(C)CC1)nc(Nc1c(Cl)ccc(C)c1F)n2C` [Example 650, 2-(6-Chloro-2-fluoro-3-methyl-phenylamino)-6-methoxy-N-(4,4-dimethyl-cyclohex-1-yl)-1-methyl-1H-benzimidazole-5-carboxamide], for which the inhibition at 1 µM worked out at 100%.
The same measure, in the same setting: for `O=C(Nc1cccc(C(F)(F)F)c1)c1ccc2[nH]c(Nc3c(Cl)cccc3Cl)nc2c1` [Example 283, 2-(2,6-Dichloro-phenylamino)-1H-benzimidazole-5-carboxylic acid (3-trifluoromethyl-phenyl)-amide] the value was 100%.

The same test, now with this note: inhibition of mPGES-1 at 10 μM.
`O=C(NC1CCCCC1)c1cc(Br)c2[nH]c(Nc3c(Cl)cccc3Cl)nc2c1` [Example 514, 7-Bromo-N-cyclohexyl-2-(2,6-dichlorophenylamino)-1H-benzimidazole-5-carboxamide]: the inhibition at 10 µM is 95%.
On the same count and under the same terms, under `O=C(Nc1ccc(Br)cc1)c1cc2[nH]c(Nc3c(Cl)cccc3Cl)nc2cc1F` [Example 144, 2-(2,6-Dichloro-phenylamino)-6-fluoro-3H-benzimidazole-5-carboxylic acid (4-bromo-phenyl)-amide] stands 97%; under `Cn1c(Nc2c(Cl)cccc2Cl)nc2cc(C(=O)NC3(C)CCCCC3)ccc21` [Example 253, 2-(2,6-Dichloro-phenylamino)-1-methyl-1H-benzimidazole-5-carboxylic acid (1-methyl-cyclohexyl)-amide], 100%; under `CNC(=O)c1ccc(Nc2nc3cc(C(=O)Nc4ccc(Br)cc4)ccc3n2C)c(Cl)c1` [Example 540, N-(4-Bromophenyl)-2-(2-chloro-4-(methylcarbamoyl)-phenylamino)-1-methyl-1H-benzimidazole-5-carboxamide], 44%.
Same read-out and setting: under `O=C(N[C@H]1CC[C@H](C(F)(F)F)CC1)c1cc2nc(Nc3c(Cl)cc(F)cc3Cl)[nH]c2cc1OCC(F)F` [Example 587, 2-(2,6-Dichloro-4-fluoro-phenylamino)-N-(trans-4-trifluoromethyl-cyclohex-1-yl)-6-(2,2-difluoroethoxy)-1H-benzimidazole-5-carboxamide] stands 97%.
The same measure, in the same setting: under `Cn1c(Nc2c(F)cccc2Cl)nc2cc(C(=O)NC3CCC4(CC3)CC4)c(F)cc21` [Example 384] stands 100%.
Consider `COc1cc2c(cc1C(=O)NCc1ncccc1C1CC1)nc(Nc1c(Cl)cccc1Cl)n2C` [Example 367, N-((3-Cyclopropylpyridin-2-yl)-methyl)-2-(2,6-dichlorophenylamino)-6-methoxy-1-methyl-1H-benzimidazole-5-carboxamide], for which the inhibition at 10 µM came out at 100%.
For `Cc1cc(NC(=O)c2cc3nc(Nc4c(Cl)cccc4Cl)n(C)c3cc2F)ncc1Cl` [Example 127, 2-(2,6-Dichloro-phenylamino)-6-fluoro-1-methyl-1H-benzimidazole-5-carboxylic acid (5-chloro-4-methyl-pyridin-2-yl)-amide], the inhibition at 10 µM came out at 100%.
Same read-out and setting: under `Cn1c(Nc2c(Cl)cccc2Cl)nc2cc(C(=O)NC3CCN(C4CC4)CC3)c(F)cc21` [Example 561, N-(1-Cyclopropylpiperidin-4-yl)-2-(2,6-dichlorophenylamino)-6-fluoro-1-methyl-1H-benzimidazole-5-carboxamide] stands 77%.
The same measure, in the same setting: for `O=C(Nc1nc2c(s1)CCC2)c1ccc2[nH]c(Nc3c(Cl)cccc3Cl)nc2c1` [Example 78, 2-(2,6-Dichloro-phenylamino)-1H-benzimidazole-5-carboxylic acid (5,6-dihydro-4H-cyclopentathiazol-2-yl)-amide] the value was 90%.
Same read-out and setting: for `CC1CCC(NC(=O)c2ccc3[nH]c(Nc4c(Cl)cccc4Cl)nc3c2)CC1` (centres unmarked) [Example 215, 2-(2,6-Dichloro-phenylamino)-1H-benzimidazole-5-carboxylic acid (4-methyl-cyclohexyl)-amide] the value was 96%.
Consider “N-(4-Bromophenyl)-1-methyl-2-(2-(4-morpholino)phenylamino)-1H-benzimidazole-5-carboxamide [Example 555]”, for which the “% inhib.” value is 70%.
As for `CCC1CCC(NC(=O)c2cc3nc(Nc4c(Cl)cccc4Cl)n(C)c3cc2F)C1` (centres unmarked) [Example 412, 2-(2,6-Dichlorophenylamino)-N-(3-ethylcyclopentyl)-6-fluoro-1-methyl-1H-benzimidazole-5-carboxamide], the inhibition at 10 µM is 100%.
Turning to `COCCOc1cccc(NC(=O)c2ccc3[nH]c(Nc4c(Cl)cccc4Cl)nc3c2)n1` [Example 571, 2-(2,6-Dichlorophenylamino)-N-(6-(2-methoxyethoxy)pyridin-2-yl)-1H-benzimidazole-5-carboxamide], the inhibition at 10 µM came to 86%.
Still for that read-out and setting: for `COc1cc2[nH]c(Nc3c(Cl)ccc(Cl)c3F)nc2cc1C(=O)NC1CCC(C)(C)CC1` [Example 616, 2-(3,6-Dichloro-2-fluoro-phenylamino)-N-(4,4-dimethyl-cyclohex-1-yl)-6-methoxy-1H-benzimidazole-5-carboxamide] the value was 100%; for `COc1cc2nc(Nc3c(Cl)cccc3Cl)[nH]c2cc1C(=O)NCc1ncccc1C` [Example 507, 2-(2,6-Dichlorophenylamino)-6-methoxy-N-((3-methylpyridin-2-yl)-methyl)-1H-benzimidazole-5-carboxamide], 98%; for `O=C(Nc1ccc(Br)c(F)c1)c1cc2nc(Nc3c(Cl)cccc3Cl)[nH]c2cc1F` [Example 121, 2-(2,6-Dichloro-phenylamino)-6-fluoro-1H-benzimidazol-5-carboxylic acid (4-bromo-3-fluoro-phenyl)-amide], 95%.
Still for that read-out and setting: under `Cn1c(Nc2c(Cl)cccc2Cl)nc2cc(C(=O)Nc3cc(Cl)ccn3)ccc21` [Example 210, 2-(2,6-Dichloro-phenylamino)-1-methyl-1H-benzimidazole-5-carboxylic acid (4-chloro-pyridin-2-yl)-amide] stands 100%.
Take `O=C(NCC1CCOCC1)c1ccc2[nH]c(Nc3c(Cl)cccc3Cl)nc2c1` [Example 217, 2-(2,6-Dichloro-phenylamino)-1H-benzimidazole-5-carboxylic acid (tetrahydro-pyran-4-ylmethyl)-amide]: the inhibition at 10 µM was determined as 54%.
Same read-out and setting: under `Cn1c(Nc2c(Cl)cc(F)cc2Cl)nc2cc(C(=O)Nc3ccc(Br)cc3)ccc21` [Example 578, 2-(2,6-Dichloro-4-fluoro-phenylamino)-N-(4-bromo-phenyl)-1-methyl-1H-benzimidazole-5-carboxamide] stands 100%; under `Cc1nc(NC(=O)c2cc3nc(Nc4c(Cl)cccc4Cl)[nH]c3cc2F)cc2c1CCCC2` [Example 138, 2-(2,6-Dichloro-phenylamino)-6-fluoro-1H-benzimidazole-5-carboxylic acid (1-methyl-5,6,7,8-tetrahydro-isoquinolin-3-yl)-amide], 100%.
The same measure, in the same setting: for `O=C(Nc1ccccc1Cl)c1ccc2[nH]c(Nc3c(Cl)cccc3Cl)nc2c1` [Example 284, 2-(2,6-Dichloro-phenylamino)-1H-benzimidazole-5-carboxylic acid (2-chloro-phenyl)-amide] the value was 100%; for `Cn1c(Nc2c(F)cccc2F)nc2cc(C(=O)N[C@H]3CC[C@H](C(F)(F)F)CC3)ccc21` [Example 171, 2-(2,6-Difluoro-phenylamino)-1-methyl-1H-benzimidazole-5-carboxylic acid (trans-4-trifluoromethyl-cyclohexyl)-amide], 94%; for `Cn1c(Nc2ccc(F)cc2Cl)nc2cc(C(=O)Nc3ccc(Br)cc3)ccc21` [Example 456, N-(4-Bromophenyl)-2-(2-chloro-4-fluorophenylamino)-1-methyl-1H-benzimidazole-5-carboxamide], 100%.
Consider `CC(C)(C)[C@H]1CC[C@H](NC(=O)c2cc3nc(Nc4c(Cl)cccc4Cl)[nH]c3cc2F)CC1` [Example 356, N-((1r,4r)-4-tert.-Butylcyclohexyl)-2-(2,6-dichlorophenylamino)-6-fluoro-1H-benzimidazole-5-carboxamide], for which the inhibition at 10 µM stood at 100%.
Same read-out and setting: under `O=C(NCC1CCCC1)c1ccc2[nH]c(Nc3c(Cl)cccc3Cl)nc2c1` [Example 219, 2-(2,6-Dichloro-phenylamino)-1H-benzimidazole-5-carboxylic acid cyclopentylmethyl-amide] stands 100%; under `Cc1cccnc1CNC(=O)c1cc2nc(Nc3c(Cl)cccc3Cl)n(C)c2cc1F` [Example 510, 2-(2,6-Dichlorophenylamino)-6-fluoro-1-methyl-N-((3-methylpyridin-2-yl)methyl)-1H-benzimidazole-5-carboxamide], 99%.
